Measurements from paper PMC9214608 (RSC Advances, 2022).

Target: SARS-CoV-2 main protease (M^pro or 3CL^pro) (Severe acute respiratory syndrome coronavirus 2, UniProt P0DTD1)
Test: biochemical
Conditions: In vitro SARS-COV-2 M^pro IC50
Work on `C=C(C)C(C=C[C@@H](C)[C@H]1CC[C@H]2[C@@H]3CC=C4CC(O)CC[C@]4(C)[C@H]3CC[C@]12C)CC` (stereo partly drawn) [Compound 1, 24-β-ethyl-cholesta-5(6),22(23),25(26)-triene-3-ol] yielded an IC50 of 12.5 ± 0.64 µM.

Same assay, conditions: In vitro SARS-COV-2 M^pro IC50, FRET-based assay; mean ± SD
`C[C@H]1[C@H](C)CC[C@]2(C)CC[C@]3(C)C(=CC[C@@H]4[C@@]5(C)CC[C@H](O)C(C)(C)[C@@H]5CC[C@]43C)[C@H]12` [Compound 2, α-amyrin] showed an IC50 of 4.18 ± 0.21 µM.
In the case of `CCCCC/C=C\C/C=C\CCCCCCCC(=O)O` [Compound 3, linoleic acid], the IC50 is reported as 20.7 ± 1.05 µM.
For `COc1cc(C2CC(=O)c3c(O)cc(O)c(OC)c3O2)ccc1O` (stereo not drawn) [Compound 8, 5,7,4′-trihydroxy-8,3′-dimethoxy flavanone], the IC50 was 27.9 ± 1.42 µM.
For `COc1c(O)cc2c(c1O)C(=O)CC(c1ccc(O)cc1)O2` (stereo not drawn) [Compound 9, 5,7,4′-trihydroxy-6-methoxy flavanone], the IC50 was 11.8 ± 0.6 µM.
`COc1cc(-c2cc(=O)c3c(O)cc(OC)c(OC)c3o2)ccc1O` [Compound 10, 4′,5-dihydroxy-3′,7,8-trimethoxyflavone] showed an IC50 of 12.8 ± 0.65 µM.
`COc1cc(-c2cc(=O)c3c(O)cc(O)c(OC)c3o2)cc(OC)c1OC` [Compound 11, 5,7-dihydroxy-3′,4′,5′,8-tetramethoxy flavone] gave an IC50 of 5.07 ± 0.26 µM.
Compound `COc1c(O)cc2c(c1O)C(=O)CC(c1cc(O)cc(O)c1)O2` (stereo not drawn) [Compound 13, 3′,5′,5,7-tetrahydroxy-6-methoxyflavanone] has an IC50 of 5.56 ± 0.28 µM.
Compound `O=c1cc(-c2ccc(O)c(O)c2)oc2c([C@@H]3O[C@H](CO)[C@@H](O)[C@H](O)[C@H]3O)c(O)cc(O)c12` [Compound 16, orientin] has an IC50 of 27.5 ± 1.4 µM.
`Cc1cccc(C)c1OCC(=O)N[C@@H](Cc1ccccc1)[C@@H](O)C[C@H](Cc1ccccc1)NC(=O)[C@H](C(C)C)N1CCCNC1=O` [Lopinavir, reference compound] gave an IC50 of 0.225 ± 0.01 µM.

Same assay, conditions: read-out: In vitro SARS-COV-2 M^pro IC50
In the case of `O=c1cc(-c2ccc(O)c(O[C@@H]3O[C@H](CO)[C@@H](O)[C@H](O)[C@H]3O)c2)oc2cc(O)cc(O)c12` [Compound 17, luteolin-3′-O-β-D-glucoside], the IC50 is reported as 10.1 ± 0.52 µM.

Test system: MERS-CoV 3CL^pro
Test: not given
Conditions: cited from earlier work
In the case of `COc1cc(O)cc(O)c1C(=O)/C=C/c1ccc(O)cc1` [Helichrysetin], the “Inhibition of MERS-CoV 3CL^pro” value is given as “able to inhibit MERS-CoV 3CL^pro”.
